Drawing on patent US20230167118A1, “DEGRADATION OF BRUTON'S TYROSINE KINASE (BTK) BY CONJUGATION OF BTK INIDBITORS WITH E3 LIGASE LIGAND AND METHODS OF USE” (BEIGENE, LTD., priority 2020, published 2023), this text covers DC50 and IC50 for 15 compounds.

One experiment deals with T1, BTK (Homo sapiens, UniProt Q06187).
T1 construct: High control=Cell group with added DMSO and without compound, indicating microplate readings without BTK degradation; endogenous in cells; host or cells: TMD-8 cells
T1 sequence (Q06187 whole entry): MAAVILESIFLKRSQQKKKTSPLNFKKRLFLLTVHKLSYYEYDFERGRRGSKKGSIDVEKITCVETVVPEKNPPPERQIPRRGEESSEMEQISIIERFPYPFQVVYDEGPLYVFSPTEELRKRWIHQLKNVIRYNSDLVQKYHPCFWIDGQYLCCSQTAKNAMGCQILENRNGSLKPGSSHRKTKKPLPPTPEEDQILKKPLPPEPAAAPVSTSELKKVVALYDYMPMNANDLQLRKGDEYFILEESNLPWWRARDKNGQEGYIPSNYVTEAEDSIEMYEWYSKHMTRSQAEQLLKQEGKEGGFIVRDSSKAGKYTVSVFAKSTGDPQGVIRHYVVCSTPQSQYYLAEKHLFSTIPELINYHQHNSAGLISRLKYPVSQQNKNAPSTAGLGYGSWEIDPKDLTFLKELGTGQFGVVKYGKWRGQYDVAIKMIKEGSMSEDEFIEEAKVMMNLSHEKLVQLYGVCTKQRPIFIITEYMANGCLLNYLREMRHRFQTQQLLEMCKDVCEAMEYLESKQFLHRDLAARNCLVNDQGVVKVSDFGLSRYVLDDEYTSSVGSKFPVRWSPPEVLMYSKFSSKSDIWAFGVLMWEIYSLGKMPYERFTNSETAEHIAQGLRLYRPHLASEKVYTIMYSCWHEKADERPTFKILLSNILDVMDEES
As to the kind of experiment: Cell Degradation: BTK degradation in TMD-8 cells, HTRF assay. In kind it is cell-based. The settings on record: 6 h treatment, IC50 (DC50) of BTK degradation. An outline of the steps: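 TMD-8 cells treated 6 h with 8-dose 6-fold dilutions in 0.2% DMSO, then lysed and BTK quantified by HTRF (665/620 nm). Degradation % normalised to high/low controls; DC50 from four-parameter fit, Dmax as maximal degradation.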

The subject of a further experiment is HEK-293 cells. As to the kind of experiment: HEK-293 Cytotoxicity Assay (CellTiter-Glo). Type of experiment: cell-based. The settings on record: Homo sapiens, HEK293, 72 h incubation, CellTiter-Glo luminescence. The gist of the method:
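HEK-293 cells treated 72 h with 8 concentrations (4-fold dilutions, 0.2% DMSO final). Viability read by CellTiter-Glo luminescence; IC50 from four-parameter logistic fit of % inhibition.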
(In general: ATP-based viability assays read luminescence as a measure of living cells.)

`Cc1cc(-c2ncnc3[nH]c(-c4ccc(N5CCN(CC6CCN(c7ccc(N8CCC(=O)NC8=O)cc7)CC6)CC5)cn4)cc23)ccc1[C@@H](C)NC(=O)c1nc(C2(C)CC2)no1` [Example 165, (R)-N-(1-(4-(6-(5-(4-((1-(4-(2,4-dioxotetrahydropyrimidin-1(2H)-yl)phenyl)piperidin-4-yl)methyl)piperazin-1-yl)pyridin-2-yl)-7H-pyrrolo[2,3-d]pyrimidin-4-yl)-2-methylphenyl)ethyl)-3-(1-methylcyclopropyl)-1,2,4-oxadiazole-5-carboxamide]: half-maximal degradation at BTK (DC50) was put at 0.69 nM. Besides, in the experiment with HEK-293 cells, the IC50 (as a rule, the point on the concentration scale where inhibition reaches its midpoint) is greater than 10000 nM.
For `Cc1cc(-c2ncnc3[nH]c(-c4ccc(N5CCN(CC6CCN(c7ccc(N8CCC(=O)NC8=O)cc7)CC6)CC5)nc4)cc23)ccc1[C@@H](C)NC(=O)c1nc(C2(C)CC2)no1` [Example 166, (R)-N-(1-(4-(6-(6-(4-((1-(4-(2,4-dioxotetrahydropyrimidin-1(2H)-yl)phenyl)piperidin-4-yl)methyl)piperazin-1-yl)pyridin-3-yl)-7H-pyrrolo[2,3-d]pyrimidin-4-yl)-2-methylphenyl)ethyl)-3-(1-methylcyclopropyl)-1,2,4-oxadiazole-5-carboxamide], it took 1.61 nM to reach half-maximal degradation at BTK (DC50). Further, the IC50 with HEK-293 cells was greater than 10000 nM.
Consider `Cc1cc(-c2ncnc3[nH]c(-c4ccc(N5CCCN(CC6CCN(c7ccc(N8CCC(=O)NC8=O)cc7)CC6)CC5)cc4)cc23)ccc1[C@@H](C)NC(=O)c1nc(C(C)(C)C)no1` [Example 167, (R)-3-(tert-butyl)-N-(1-(4-(6-(4-(4-((1-(4-(2,4-dioxotetrahydropyrimidin-1(2H)-yl)phenyl)piperidin-4-yl)methyl)-1,4-diazepan-1-yl)phenyl)-7H-pyrrolo[2,3-d]pyrimidin-4-yl)-2-methylphenyl)ethyl)-1,2,4-oxadiazole-5-carboxamide], for which the DC50 – broadly, the midpoint of the concentration-degradation curve – at BTK is 2.61 nM. In addition, the IC50 in the experiment on HEK-293 cells was greater than 10000 nM.
The matching figures for `Cc1cc(-c2ncnc3[nH]c(-c4cnc(N5CCN(CC6CCN(c7ccc(N8CCC(=O)NC8=O)cc7)CC6)CC5)s4)cc23)ccc1[C@@H](C)NC(=O)c1nc(C(C)(C)C)no1` [Example 168, (R)-3-(tert-butyl)-N-(1-(4-(6-(2-(4-((1-(4-(2,4-dioxotetrahydropyrimidin-1(2H)-yl)phenyl)piperidin-4-yl)methyl)piperazin-1-yl)thiazol-5-yl)-7H-pyrrolo[2,3-d]pyrimidin-4-yl)-2-methylphenyl)ethyl)-1,2,4-oxadiazole-5-carboxamide]: 0.75 nM and greater than 10000 nM.
The matching figures for `Cc1cc(-c2ncnc3[nH]c(-c4c(C)nn(C5CN(CC6CCN(c7ccc(N8CCC(=O)NC8=O)cc7)CC6)C5)c4C)cc23)ccc1[C@@H](C)NC(=O)c1nc(C(C)(C)C)no1` [Example 169, (R)-3-(tert-butyl)-N-(1-(4-(6-(1-(1-((1-(4-(2,4-dioxotetrahydropyrimidin-1(2H)-yl)phenyl)piperidin-4-yl)methyl)azetidin-3-yl)-3,5-dimethyl-1H-pyrazol-4-yl)-7H-pyrrolo[2,3-d]pyrimidin-4-yl)-2-methylphenyl)ethyl)-1,2,4-oxadiazole-5-carboxamide]: 0.52 nM and greater than 10000 nM.
The matching figures for `C[C@@H](NC(=O)c1nc(C(C)(C)C)no1)c1ccc(-c2ncnc3[nH]c(-c4ccc(N5CCN(CC6CCN(c7ccc(N8CCC(=O)NC8=O)cc7)CC6)CC5)cn4)cc23)cc1CO` [Example 170, (R)-3-(tert-butyl)-N-(1-(4-(6-(5-(4-((1-(4-(2,4-dioxotetrahydropyrimidin-1(2H)-yl)phenyl)piperidin-4-yl)methyl)piperazin-1-yl)pyridin-2-yl)-7H-pyrrolo[2,3-d]pyrimidin-4-yl)-2-(hydroxymethyl)phenyl)ethyl)-1,2,4-oxadiazole-5-carboxamide]: 0.17 nM and greater than 10000 nM.
Take `C[C@@H](NC(=O)c1noc(C(C)(C)C)n1)c1cc(F)c(-c2ncnc3[nH]c(-c4ccc(N5CCN(CC6CCN(c7ccc(N8CCC(=O)NC8=O)cc7)CC6)CC5)cn4)cc23)cc1CO` [Example 171, (R)-5-(tert-butyl)-N-(1-(4-(6-(5-(4-((1-(4-(2,4-dioxotetrahydropyrimidin-1(2H)-yl)phenyl)piperidin-4-yl)methyl)piperazin-1-yl)pyridin-2-yl)-7H-pyrrolo[2,3-d]pyrimidin-4-yl)-5-fluoro-2-(hydroxymethyl)phenyl)ethyl)-1,2,4-oxadiazole-3-carboxamide]: the half-maximal degradation concentration (DC50) at BTK was 0.25 nM. The 50% inhibitory concentration (IC50) in the experiment on HEK-293 cells is greater than 10000 nM.
The matching figures for `Cc1cc(-c2ncnc3[nH]c(-c4ccc(C5(O)CN(CC6CCN(c7ccc(N8CCC(=O)NC8=O)cc7)CC6)C5)cn4)cc23)ccc1[C@@H](C)NC(=O)c1nc(C(C)(C)C)no1` [Example 172, (R)-3-(tert-butyl)-N-(1-(4-(6-(5-(1-((1-(4-(2,4-dioxotetrahydropyrimidin-1(2H)-yl)phenyl)piperidin-4-yl)methyl)-3-hydroxyazetidin-3-yl)pyridin-2-yl)-7H-pyrrolo[2,3-d]pyrimidin-4-yl)-2-methylphenyl)ethyl)-1,2,4-oxadiazole-5-carboxamide]: 0.24 nM and greater than 10000 nM.
For `Cc1cc(-c2ncnc3[nH]c(-c4ccc(C5(F)CN(CC6CCN(c7ccc(N8CCC(=O)NC8=O)cc7)CC6)C5)cn4)cc23)ccc1[C@@H](C)NC(=O)c1nc(C(C)(C)C)no1` [Example 173, (R)-3-(tert-butyl)-N-(1-(4-(6-(5-(1-((1-(4-(2,4-dioxotetrahydropyrimidin-1(2H)-yl)phenyl)piperidin-4-yl)methyl)-3-fluoroazetidin-3-yl)pyridin-2-yl)-7H-pyrrolo[2,3-d]pyrimidin-4-yl)-2-methylphenyl)ethyl)-1,2,4-oxadiazole-5-carboxamide], at BTK, the DC50 was 0.98 nM. For the same compound, the half-inhibitory concentration (IC50) with HEK-293 cells is greater than 10000 nM.
The like results for `Cc1cc(-c2ncnc3[nH]c(-c4nn(C)c(C5=CCN(CC6CCN(c7ccc(N8CCC(=O)NC8=O)cc7)CC6)CC5)c4C)cc23)ccc1[C@@H](C)NC(=O)c1nc(C(C)(C)C)no1` [Example 174, (R)-3-(tert-butyl)-N-(1-(4-(6-(5-(1-((1-(4-(2,4-dioxotetrahydropyrimidin-1(2H)-yl)phenyl)piperidin-4-yl)methyl)-1,2,3,6-tetrahydropyridin-4-yl)-1,4-dimethyl-1H-pyrazol-3-yl)-7H-pyrrolo[2,3-d]pyrimidin-4-yl)-2-methylphenyl)ethyl)-1,2,4-oxadiazole-5-carboxamide] were, in that order, 1.51 nM and greater than 10000 nM.
At BTK, `Cc1cc(-c2ncnc3[nH]c(-c4c(C)nn(C5CCN(CCNCC6CCN(c7ccc(N8CCC(=O)NC8=O)cc7)CC6)CC5)c4C)cc23)ccc1[C@@H](C)NC(=O)c1nc(C(C)(C)C)no1` [Example 175, (R)-3-(tert-butyl)-N-(1-(4-(6-(1-(1-(2-(((1-(4-(2,4-dioxotetrahydropyrimidin-1(2H)-yl)phenyl)piperidin-4-yl)methyl)amino)ethyl)piperidin-4-yl)-3,5-dimethyl-1H-pyrazol-4-yl)-7H-pyrrolo[2,3-d]pyrimidin-4-yl)-2-methylphenyl)ethyl)-1,2,4-oxadiazole-5-carboxamide] had a DC50 of 1.97 nM. Besides, the IC50 in the experiment on HEK-293 cells was determined as 7360 nM.
On to `Cc1cc(-c2ncnc3[nH]c(-c4ccc(C5CCN(CC6CCN(c7ccc(N8CCC(=O)NC8=O)cc7)CC6)C5)cn4)cc23)ccc1[C@@H](C)NC(=O)c1nc(C(C)(C)C)no1` (stereo partly drawn) [Example 176, 3-(tert-butyl)-N-((1R)-1-(4-(6-(5-(1-((1-(4-(2,4-dioxotetrahydropyrimidin-1(2H)-yl)phenyl)piperidin-4-yl)methyl)pyrrolidin-3-yl)pyridin-2-yl)-7H-pyrrolo[2,3-d]pyrimidin-4-yl)-2-methylphenyl)ethyl)-1,2,4-oxadiazole-5-carboxamide], for which, at BTK, the 50% degradation concentration (DC50) was determined as 1.1 nM. In the experiment on HEK-293 cells, this compound gave a 50% inhibitory concentration (IC50) greater than 10000 nM.
The like results for `Cc1cc(-c2ncnc3[nH]c(-c4ccc(C5(F)CCN(CC6CCN(c7ccc(N8CCC(=O)NC8=O)cc7)CC6)C5)cn4)cc23)ccc1[C@@H](C)NC(=O)c1nc(C(C)(C)C)no1` (stereo partly drawn) [Example 177, 3-(tert-butyl)-N-((1R)-1-(4-(6-(5-(1-((1-(4-(2,4-dioxotetrahydropyrimidin-1(2H)-yl)phenyl)piperidin-4-yl)methyl)-3-fluoropyrrolidin-3-yl)pyridin-2-yl)-7H-pyrrolo[2,3-d]pyrimidin-4-yl)-2-methylphenyl)ethyl)-1,2,4-oxadiazole-5-carboxamide] were, in that order, 0.99 nM and greater than 10000 nM.
`C[C@@H](NC(=O)c1nc(C(C)(C)C)no1)c1cc(F)c(-c2ncnc3[nH]c(-c4ccc(N5CCN(CC6CCN(c7ccc(N8CCC(=O)NC8=O)cc7)CC6)CC5)cn4)cc23)cc1CO` [Example 178, (R)-3-(tert-butyl)-N-(1-(4-(6-(5-(4-((1-(4-(2,4-dioxotetrahydropyrimidin-1(2H)-yl)phenyl)piperidin-4-yl)methyl)piperazin-1-yl)pyridin-2-yl)-7H-pyrrolo[2,3-d]pyrimidin-4-yl)-5-fluoro-2-(hydroxymethyl)phenyl)ethyl)-1,2,4-oxadiazole-5-carboxamide] yielded a half-maximal degradation concentration (DC50) at BTK of 0.44 nM. The compound also came in with an IC50 in the experiment with HEK-293 cells greater than 10000 nM.
On to `Cc1cc(-c2ncnc3[nH]c(-c4ccc(C5CN(CC6CCN(c7ccc(N8CCC(=O)NC8=O)cc7)CC6)C5)nc4)cc23)ccc1[C@@H](C)NC(=O)c1nc(C(C)(C)C)no1` [Example 179, (R)-3-(tert-butyl)-N-(1-(4-(6-(6-(1-((1-(4-(2,4-dioxotetrahydropyrimidin-1(2H)-yl)phenyl)piperidin-4-yl)methyl)azetidin-3-yl)pyridin-3-yl)-7H-pyrrolo[2,3-d]pyrimidin-4-yl)-2-methylphenyl)ethyl)-1,2,4-oxadiazole-5-carboxamide], for which, on BTK, it took 0.74 nM to reach half-maximal degradation (DC50). Further, the IC50 in the experiment with HEK-293 cells is 6040 nM.
